Measured values published in patent US8728797B2, “Yeast membrane protein expression system and its application in drug screening” (priority 2001, dated 2014).
In brackets after ≈: the same amount, converted by molar mass. Marks after values point to notes of the source that are not given here.

Assays:
[1] = system: S. cerevisiae 4 (CgPdh1p); assay: Checkerboard chemosensitisation to fluconazole; type: cell-based
Experimental: (§1) Checkerboard drug susceptibility assays were used to measure the chemosensitisation of cells to fluconazole by test compounds such as Pdr5p inhibitors. Fluconazole concentration in the CSM-URA medium was varied in one dimension (between 0 and 80 μg/ml) and the concentration of the test compound was varied in the second dimension (between 0 and 40 μM). Cell inocula, growth conditions and the optical determination of growth were identical to standard liquid MIC determinations. The assays were conducted in 6 by 6 well arrays centred in a 96 well microtitre plate using buffered CSM-URA medium at pH 7.0, with fluconazole and/or peptide included in each well at the indicated concentration.

C. krusei B2399 = assay: Checkerboard chemosensitisation to fluconazole; type: cell-based
Experimental: as §1

[2] = system: S. cerevisiae 27A (CaCdr2p); assay: Checkerboard chemosensitisation to fluconazole; type: cell-based
Experimental: as §1

C. tropicalis IFO0618 = assay: Checkerboard chemosensitisation to fluconazole; type: cell-based
Experimental: as §1

C. dubliniensis CD36 = assay: Checkerboard chemosensitisation to fluconazole; type: cell-based
Experimental: as §1

[3] = system: S. cerevisiae 1B (CgCdr1p); assay: Checkerboard chemosensitisation to fluconazole; type: cell-based
Experimental: as §1

C. albicans FR2 (Ben^Rp) = assay: Checkerboard chemosensitisation to fluconazole; type: cell-based
Experimental: as §1

AD124567 cells = assay: Glucose-dependent rhodamine 6G efflux; type: cell-based, S. cerevisiae; settings: 40 μM KN20, 5 minute preincubation
Experimental: De-energised cells were pre-loaded with rhodamine 6G, as described in Materials and methods for Example 4. The efflux of rhodamine 6G at 30° C. was followed by direct measurement of fluorescence in cell supernatants following glucose (2 mM) addition to cell suspensions. (A) The kinetics of energy-dependent rhodamine 6G efflux in strains AD1002 (▪) and AD1-8u^− (●). The fluorescence in supernatants of AD1002 cells in the absence of added glucose is also shown (◯). (B) The effect of KN20 concentration on the energy-dependent efflux of rhodamine 6G from AD124567 cells. The indicated concentrations of KN20 were added to AD124567 cells preloaded with rhodamine 6G, the cells were preincubated for 5 minutes at 30° C. and glucose added to commence rhodamine efflux.
A previously described method (Kolaczkowski, M et al. 1996) was adapted to measure rhodamine 6G (Sigma) efflux from whole cells. Yeast cells from exponentially growing cultures in YEPD (OD600 nm=0.5) were collected by centrifugation (3,000×g, 5 min, 20° C.) and washed three times with water. The washed cells were resuspended at a concentration of 0.5×10^6 to 1.0×10^7 cells per ml in HEPES-NaOH (50 mM, pH 7.0) containing 5 mM 2-deoxyglucose and 10 μM rhodamine 6G. […] The rhodamine 6G fluorescence of samples was measured using a Cary Eclipse spectrofluorimeter (Varian Inc, Victora Australia). […]

[4] = target: S. cerevisiae plasma membrane H^+-ATPase (Pma1p) (Saccharomyces cerevisiae, UniProt P05030); assay: Plasma membrane H+-ATPase inhibition; type: biochemical; settings: read-out: 150 for plasma membrane H^+-ATPase
[5] = system: S. cerevisiae AD1-8u^− hyper-expressing CDR1-1; assay: MIC, CDR1 allele 1 hyper-expressed; type: cell-based; settings: Saccharomyces cerevisiae; hyper-expression of CDR1-1 allele
Experimental: (§2) The MICs of antifungal agents for S. cerevisiae cells were determined by a microdilution test based on the macrodilution reference method of the National Committee for Clinical Laboratory Standards. Cells (10 μl cell suspension, 2×10^5 cells/ml) were inoculated into 90 μl CSM-URA, buffered with 10 mM 2-(N-morpholino)ethanesulfonic acid (MES) and 18 mM N-2-hydroxyethylpiperazine-N′-2-ethanesulfonic acid (HEPES), pH 7.0 and containing 0.67% (w/v) yeast nitrogen base (YNB) in microtitre plate wells. For the uracil-requiring strain AD1-8u^− the medium was supplemented with 0.02% (w/v) uridine. The wells contained, in […], doubling dilutions of antifungal agents (final concentrations: fluconazole, 40-0.078 μg/ml; itraconazole and ketoconazole, 8-0.016 μg/ml). The microtitre plates were incubated at 30° C. for 48 h with shaking and then the growth of cells in individual wells (OD590) was measured with a microplate reader (EL 340, Bio-Tek, Winooski, Vt.). The MIC80 was the lowest concentration of drug that inhibited growth yield by at least 80% compared to a no-drug control.

[6] = system: SfiI-containing construct expressing Pdr5p; assay: MIC, SfiI-containing Pdr5p construct; type: cell-based, S. cerevisiae; settings: low Pdr5p expression
Experimental: as §2

[7] = system: S. cerevisiae AD1-8 sec6-4; assay: MIC microdilution test, sec6-4 host; type: cell-based; settings: Saccharomyces cerevisiae, AD18SEC64, 30° C.
Experimental: as §2

[8] = system: selected respiratory competent construct expressing Cdr1p; assay: MIC, corrected Cdr1p construct; type: cell-based, S. cerevisiae; settings: Saccharomyces cerevisiae; construct corrected with linear PCR fragment
Experimental: as §2

[9] = system: S. cerevisiae AD1-8u^− hyper-expressing CDR1-2; assay: MIC, CDR1 allele 2 hyper-expressed; type: cell-based; settings: Saccharomyces cerevisiae; hyper-expression of CDR1-2 allele
Experimental: as §2

S. cerevisiae plasma membrane H^+-ATPase (Pma1p), sequence (P05030 whole entry): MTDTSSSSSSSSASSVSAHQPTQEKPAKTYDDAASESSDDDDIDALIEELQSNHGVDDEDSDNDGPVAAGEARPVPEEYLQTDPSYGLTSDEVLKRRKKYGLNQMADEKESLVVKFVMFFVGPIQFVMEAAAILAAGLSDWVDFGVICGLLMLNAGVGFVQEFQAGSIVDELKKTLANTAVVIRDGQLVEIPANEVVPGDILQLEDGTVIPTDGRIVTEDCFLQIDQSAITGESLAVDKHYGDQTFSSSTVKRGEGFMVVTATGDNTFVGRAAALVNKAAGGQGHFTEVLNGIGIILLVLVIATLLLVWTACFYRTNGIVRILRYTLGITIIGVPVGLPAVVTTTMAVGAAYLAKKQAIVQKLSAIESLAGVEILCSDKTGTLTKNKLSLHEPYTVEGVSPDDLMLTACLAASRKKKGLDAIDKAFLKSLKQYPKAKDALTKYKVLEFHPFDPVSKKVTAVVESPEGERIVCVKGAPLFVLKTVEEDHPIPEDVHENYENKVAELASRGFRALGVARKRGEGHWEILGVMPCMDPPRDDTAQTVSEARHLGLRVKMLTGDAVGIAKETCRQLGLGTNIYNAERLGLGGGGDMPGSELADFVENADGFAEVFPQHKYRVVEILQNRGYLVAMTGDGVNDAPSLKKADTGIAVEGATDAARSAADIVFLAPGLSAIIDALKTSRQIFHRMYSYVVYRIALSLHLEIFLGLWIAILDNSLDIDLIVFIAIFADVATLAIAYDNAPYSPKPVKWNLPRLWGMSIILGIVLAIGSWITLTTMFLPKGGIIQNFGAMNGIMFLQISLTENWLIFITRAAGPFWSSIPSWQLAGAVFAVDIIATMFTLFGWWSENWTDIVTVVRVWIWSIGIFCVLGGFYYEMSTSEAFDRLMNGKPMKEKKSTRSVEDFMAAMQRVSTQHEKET

Compound: D-octapeptide NH2-Asn-Trp-Trp-Lys-Val-Arg-Arg-Arg-CONH2 with a single 4-methoxy-2,3,6-trimethylbenzenesulphonyl (Mtr) substituent on one tryptophan sidechain; Pdr5p inhibitor [KN20]
- Chemosensitising concentration KN20 [1]: 20 µM
- Fold-sensitisation by KN20 (For FCZ MIC) [1]: 16 fold
- Chemosensitising concentration KN20 (C. krusei B2399; C. krusei B2399): 80 µM
- Fold-sensitisation by KN20 (For FCZ MIC) (C. krusei B2399; C. krusei B2399): 2.5 fold
- Chemosensitising concentration KN20 [2]: 20 µM
- Fold-sensitisation by KN20 (For FCZ MIC) [2]: 4 fold
- Chemosensitising concentration KN20 (C. tropicalis IFO0618; C. tropicalis IFO0618): 10 µM
- Fold-sensitisation by KN20 (For FCZ MIC) (C. tropicalis IFO0618; C. tropicalis IFO0618, resistant tail eliminated): 16^a fold
- Chemosensitising concentration KN20 (C. dubliniensis CD36; C. dubliniensis CD36): 80 µM
- Fold-sensitisation by KN20 (For FCZ MIC) (C. dubliniensis CD36; C. dubliniensis CD36, resistant tail eliminated): 64.5^a fold
- Chemosensitising concentration KN20 [3]: 15 µM
- Fold-sensitisation by KN20 (For FCZ MIC) [3]: 8 fold
- Chemosensitising concentration KN20 (C. albicans FR2 (Ben^Rp)): 20 µM
- Fold-sensitisation by KN20 (For FCZ MIC) (C. albicans FR2 (Ben^Rp)): 4 fold
- inhibition of rhodamine 6G efflux (AD124567 cells): 50%
- IC50 [4]: 10 µM

Compound: OC(Cn1cncn1)(Cn1cncn1)c1ccc(F)cc1F [fluconazole]
- MIC [5]: 400 µg/mL (≈ 1310 µM)
- MIC [6]: < 40 mu.g/ml
- Chemosensitising concentration FCZ ([1]; with KN20): 1.25 µg/mL
- Chemosensitising concentration FCZ (C. krusei B2399): 80 µg/mL
- Chemosensitising concentration FCZ ([2]; with KN20): 20 µg/mL
- Chemosensitising concentration FCZ (C. tropicalis IFO0618): 10 µg/mL
- Chemosensitising concentration FCZ (C. dubliniensis CD36): 0.31 µg/mL
- Chemosensitising concentration FCZ ([3]; with KN20): 40 µg/mL
- Chemosensitising concentration FCZ (C. albicans FR2 (Ben^Rp); with KN20): 8 µg/mL
- MIC80 [7]: 0.5 µg/mL (≈ 1.63 µM)
- MIC [8]: 400 µg/mL (≈ 1310 µM)
- MIC [9]: 80 µg/mL (≈ 261 µM)
